Measurements from US9066977B2, “Method of utilization of combination of benzophenone derivative or salt thereof and immunosuppressing agent, and pharmaceutical composition comprising these components” (TOYAMA CHEMICAL CO., LTD., priority 2008, dated 2015).

Key:
[1] = test system: mouse type II collagen-induced arthritis; assay: Combined use of compound A and methotrexate on mouse type II collagen-induced arthritis (Test Example 1); type: in vivo; details: male DBA/1J mice, day following final administration
Experimental: Eight-week-old male DBA/1J mice (9 or 10 mice per group; Charles River Laboratories Japan) were used. A 2 mg/mL bovine type II collagen dissolved in a 0.1 mol/L acetic acid solution (Koken Co., Ltd.) was mixed with an equal volume of Freund's complete adjuvant (BD Diagnostic Systems) to prepare an emulsion. The emulsion (0.2 mL) was intradermally injected at the hip of each mouse. Twenty-one days after the primary immunization, the same treatment was carried out (secondary immunization), so that type II collagen arthritis was induced.
Compound A was dissolved in a 2-fold molar amount of sodium hydroxide solution, and a 3-fold weight of polyvinylpyrrolidone was then added to the solution, followed by dilution with distilled water. The concentration of compound A in a compound A (1 mg/kg)-dosing solution was adjusted to be 0.1 mg/mL. Methotrexate was suspended in 0.5% methylcellulose solution. The concentration of methotrexate in methotrexate (0.5 mg/kg)-dosing solution was adjusted to be 0.05 mg/mL. Each dosing solution was orally administered to the mice.
To control group, polyvinylpyrrolidone solution and 0.5% methylcellulose solution were orally administered. […]
The knuckle portion and the articulations of wrist and tarsus portions of the four paws of each mouse were evaluated using the following 4 scores. […]

[2] = test system: mouse type II collagen-induced arthritis; assay: Combined use of compound A and dexamethasone on mouse type II collagen-induced arthritis (Test Example 2); type: in vivo; details: male DBA/1J mice, day following final administration
Experimental: Eight-week-old male DBA/1J mice (8-10 mice per group; Charles River Laboratories Japan) were used. The induction of mouse type II collagen arthritis was conducted by the method according to Test Example 1.
Compound A was dissolved in a 2-fold molar amount of sodium hydroxide solution, and a 3-fold weight of polyvinylpyrrolidone was then added to the solution, followed by dilution with distilled water. The concentrations of compound A in compound A (1 mg/kg and 10 mg/kg)-dosing solutions were adjusted to be 0.1 mg/mL and 1.0 mg/mL. The concentration of compound A in a compound A (1 mg/kg)-dosing solution in combined administration was adjusted to be 0.2 mg/mL. Dexamethasone was suspended in polyvinylpyrrolidone solution. The concentration of dexamethasone in dexamethasone (0.025 mg/kg)-dosing solution was adjusted to be 0.0025 mg/mL. The concentration of dexamethasone in dexamethasone (0.025 mg/kg)-dosing solution in combined administration was adjusted to be 0.005 mg/mL. Each dosing solution was orally administered to the mice.
To control group, polyvinylpyrrolidone solution was orally administered.
After dividing into groups, and the second immunization, compound A and dexamethasone were administered once a day for 14 days.
The evaluation to mouse arthritis was conducted by the method according to Test Example 1.

[3] = Compound A 1 mg/kg orally once a day for 14 days

## O=C(O)CCc1cc(C(=O)c2ccc(OC3CCCC3)cc2O)ccc1OCc1ccc2c(O)noc2c1 [Compound A, 3-(5-(4-(cyclopentyloxy)-2-hydroxybenzoyl)-2-((3-hydroxy-1,2-benzisoxazol-6-yl)methoxy)phenyl)propionic acid]
[1]; [3]
  Arthritis inhibition rate (%): 19%
[2]; [3]
  Arthritis inhibition rate (%): 14%
[2]; Compound A 10 mg/kg orally once a day for 14 days
  Arthritis inhibition rate (%): 58%

## C[C@@H]1C[C@H]2[C@@H]3CCC4=CC(=O)C=C[C@]4(C)[C@@]3(F)[C@@H](O)C[C@]2(C)[C@@]1(O)C(=O)CO [Dexamethasone, reference compound]
[2]; Dexamethasone 0.025 mg/kg orally once a day for 14 days
  Arthritis inhibition rate (%): 30%

## CN(Cc1cnc2nc(N)nc(N)c2n1)c1ccc(C(=O)N[C@@H](CCC(=O)O)C(=O)O)cc1 [Methotrexate, reference compound]
[1]; Methotrexate 0.5 mg/kg orally once a day for 14 days
  Arthritis inhibition rate (%): 15%
